Data on two compounds can be found in patent US7939332B2, “Detection of analytes in aqueous environments” (Sensors for Medicine and Science, Inc., priority 2000, dated 2011).

The data set is described as follows: Solubility. It counts as physicochemical. The settings on record: for solubility in water: H2O.

For the compound `C=C(C)C(=O)NCCCN(Cc1ccccc1B(O)O)Cc1c2ccccc2cc2ccccc12` [9-[[N-methacryloylaminopropyl-N-(o-boronobenzyl)amino]methyl]anthracene], the solubility in water entry is “Limited solubility in H2O”. In addition, the “solubility in organic solvents” value (CH2Cl2, CHCl3, THF, CH3OH, C2H5OH) is “soluble in CH2Cl2, CHCl3, THF, CH3OH, and C2H5OH”. For the same compound, the solubility in water result (listed as anthracene derivative of Examples 1 and 2) is “insoluble in water”. Moreover, the solubility in methanol result (methanol, with respect to observing excimer characteristics) is “insufficiently soluble”.

With `C=C(C)C(=O)NCCCN(Cc1ccc(CN(CCCNC(=O)C(=C)C)Cc2ccccc2B2OCC(C)(C)CO2)cc1)Cc1ccccc1B1OCC(C)(C)CO1` [bis boronic acid monomer, α,α′-bis[N-[2-(5,5-dimethyl-1,3,2]dioxaborinan-2-yl)-benzyl]-N-[3-(methacrylamido)propylamino]-1,4-xylene], the maximum solubility (PBS (pH 7.4)) came to 1000 µM.
